Results on two molecules are retold here after PMC2637447 (Neuropharmacology, 2008).

As a reminder, the Kb is the equilibrium dissociation constant of an antagonist, usually derived from a functional assay. A low value points to a more potent antagonist. A word on the inhibition: it is how much of the control response was suppressed.

For one experiment, the target named is GluK1 (Homo sapiens, UniProt P39086). The experiment is described as follows: Ca2+ fluorescence assay, antagonism of L-glutamate. In kind it is cell-based.
GluK1, sequence (P39086 31-918): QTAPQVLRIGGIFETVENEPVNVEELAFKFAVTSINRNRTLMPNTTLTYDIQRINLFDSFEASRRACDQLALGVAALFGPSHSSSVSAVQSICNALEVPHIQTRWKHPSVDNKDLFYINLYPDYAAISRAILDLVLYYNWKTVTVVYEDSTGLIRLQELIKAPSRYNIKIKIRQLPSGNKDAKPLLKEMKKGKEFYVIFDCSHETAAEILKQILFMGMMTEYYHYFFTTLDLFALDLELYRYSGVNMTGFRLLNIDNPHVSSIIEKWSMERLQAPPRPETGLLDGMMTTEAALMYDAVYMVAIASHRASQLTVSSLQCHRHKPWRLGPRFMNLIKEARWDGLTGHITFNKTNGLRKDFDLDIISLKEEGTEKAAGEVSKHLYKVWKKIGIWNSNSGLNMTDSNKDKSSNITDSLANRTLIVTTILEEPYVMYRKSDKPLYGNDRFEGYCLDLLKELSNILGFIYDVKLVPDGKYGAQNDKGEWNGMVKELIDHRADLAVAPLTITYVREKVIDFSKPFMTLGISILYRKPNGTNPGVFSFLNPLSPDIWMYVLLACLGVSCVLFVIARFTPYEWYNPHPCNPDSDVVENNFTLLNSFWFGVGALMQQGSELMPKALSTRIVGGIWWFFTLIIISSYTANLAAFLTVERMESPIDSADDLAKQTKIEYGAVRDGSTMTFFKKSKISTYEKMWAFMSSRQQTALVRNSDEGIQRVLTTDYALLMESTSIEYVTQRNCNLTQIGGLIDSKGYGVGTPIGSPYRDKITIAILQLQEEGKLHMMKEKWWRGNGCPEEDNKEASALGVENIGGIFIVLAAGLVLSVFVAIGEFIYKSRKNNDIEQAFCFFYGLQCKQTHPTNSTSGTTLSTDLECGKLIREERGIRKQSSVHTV
Another experiment deals with GluK3 (Homo sapiens, UniProt Q13003). The experiment is described as follows: whole-cell voltage clamp, % inhibition at […] of […] glutamate currents. The conditions noted are these: read-out: % inhibition at 30 μM. In kind it is cell-based.
GluK3, sequence (Q13003 32-919): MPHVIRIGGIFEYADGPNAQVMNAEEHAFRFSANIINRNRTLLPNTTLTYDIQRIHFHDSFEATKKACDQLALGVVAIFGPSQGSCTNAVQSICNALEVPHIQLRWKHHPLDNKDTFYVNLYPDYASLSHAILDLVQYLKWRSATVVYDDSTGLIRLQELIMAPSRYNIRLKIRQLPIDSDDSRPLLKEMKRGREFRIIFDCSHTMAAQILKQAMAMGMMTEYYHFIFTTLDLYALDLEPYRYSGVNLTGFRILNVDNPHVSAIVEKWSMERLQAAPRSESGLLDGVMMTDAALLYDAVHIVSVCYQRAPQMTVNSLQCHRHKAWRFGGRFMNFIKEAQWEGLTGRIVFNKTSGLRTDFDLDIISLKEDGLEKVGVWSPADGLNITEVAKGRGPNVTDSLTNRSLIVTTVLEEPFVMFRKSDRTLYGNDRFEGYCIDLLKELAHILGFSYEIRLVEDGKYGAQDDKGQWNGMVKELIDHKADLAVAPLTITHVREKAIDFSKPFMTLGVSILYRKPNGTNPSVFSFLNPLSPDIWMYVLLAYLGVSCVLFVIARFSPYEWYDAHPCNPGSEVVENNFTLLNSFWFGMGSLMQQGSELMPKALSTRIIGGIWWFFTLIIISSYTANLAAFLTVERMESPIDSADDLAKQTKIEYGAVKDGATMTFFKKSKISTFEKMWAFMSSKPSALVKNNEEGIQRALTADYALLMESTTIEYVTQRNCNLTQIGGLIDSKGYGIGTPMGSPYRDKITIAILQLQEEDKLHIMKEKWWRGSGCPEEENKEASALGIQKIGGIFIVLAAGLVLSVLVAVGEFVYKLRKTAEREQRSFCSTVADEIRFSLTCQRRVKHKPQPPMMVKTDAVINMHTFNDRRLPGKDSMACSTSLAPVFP

With `Cc1cn(C[C@H](N)C(=O)O)c(=O)n(Cc2cc(-c3ccccc3)sc2C(=O)O)c1=O` [ACET, (S)-1-(2-amino-2-carboxyethyl)-3-(2-carboxy-5-phenylthiophene-3-yl-methyl)-5-methylpyrimidine-2,4-dione], the Kb on GluK1 amounted to 1.4 ± 0.2 nM. Also, at GluK3, the inhibition at 30 µM is 30 ± 5%.
Molecule UBP304 yielded a Kb on GluK1 of 110 ± 30 nM.
